Drawing on patent EP2951180B1, “2,6,7,8 SUBSTITUTED PURINES AS HDM2 INHIBITORS” (Merck Sharp & Dohme Corp., priority 2013, dated 2014), this text covers IC50 for 20 compounds.

In the test the target is T1, HDM2 (Homo sapiens, UniProt Q00987).
T1 construct: Thioredoxin (N); made in house; host or cells: E. coli strain BL21(DE3)Rosetta
T1 sequence (Q00987 17-125): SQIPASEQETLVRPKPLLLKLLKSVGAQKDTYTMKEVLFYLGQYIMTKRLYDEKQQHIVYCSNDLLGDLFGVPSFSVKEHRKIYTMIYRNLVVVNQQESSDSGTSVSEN
Description: FRET assay (HDM2 inhibition; method not described in this part). Particulars: Table 1. Type of test: binding.
As a reminder, the IC50 is the concentration at which inhibition is half-maximal. Read a low IC50 as inhibition by little substance. As to `CC(C)c1ccc(OC(F)(F)F)c(-c2nc3nc(C(=O)O)nc(N[C@H](C)C4CCC4)c3n2Cc2ccc(C(F)(F)F)cc2)c1` [Example 1.52, 6-{[(1R)-1-cyclobutylethyl]amino}-8-[5-(1-methylethyl)-2-(trifluoromethoxy)phenyl]-7-[4-(trifluoromethyl)benzyl] - 7H-purine-2-carboxylic acid], the IC50 came out at 6.25 nM.

With `C[C@@H](Nc1nc(C(=O)O)nc2nc(-c3cc(C(C)(C)C)ccn3)n(Cc3ccc(C(F)(F)F)cc3)c12)C1CCC1` [Example 1.53, 8-(4-tert-butylpyridin-2-yl)-6-{[(1R)-1-cyclobutylethyl]amino}-7-[4-(trifluoromethyl)benzyl]-7H-purine-2-carboxylic acid], inhibition was half-maximal at 4.36 nM (IC50).

`C[C@@H](Nc1nc(C(=O)O)nc2nc(-c3cc(C4CCC4)ccn3)n(Cc3ccc(C(F)(F)F)cc3)c12)C1CCC1` [Example 1.54] gave an IC50 of 5.61 nM.

As to `C[C@@H](Nc1nc(C(=O)O)nc2nc(-c3cc(C4CCCC4)ccn3)n(Cc3ccc(C(F)(F)F)cc3)c12)C1CCC1` [Example 1.55, 6-{[(1R)-1-cyclobutylethyl]amino}-8-(4-cyclopentylpyridin-2-yl)-7-[4-(trifluoromethyl)benzyl]-7H-purine-2-carboxylic acid], the IC50 was 4.77 nM.

`C[C@@H](Nc1nc(C(=O)O)nc2nc(-c3cc(C4CCCCC4)ccn3)n(Cc3ccc(C(F)(F)F)cc3)c12)C1CCC1` [Example 1.56, 6-{[(1R)-1-cyclobutylethyl]amino}-8-(4-cyclohexylpyridin-2-yl)-7-[4-(trifluoromethyl)benzyl]-7H-purine-2-carboxylic acid] displayed an IC50 of 6.99 nM. The IC50 values of the last two compounds are within 1.5-fold of each other.

`C[C@@H](Nc1nc(C(=O)O)nc2nc(-c3cc(-c4cccs4)ccn3)n(Cc3ccc(C(F)(F)F)cc3)c12)C1CCC1` [Example 1.57, 6-{[(1R)-1-cyclobutylethyl]amino}-8-(4-thiophen-2-ylpyridin-2-yl)-7-[4-(trifluoromethyl)benzyl]-7H-purine-2-carboxylic acid] came in with an IC50 of 5.95 nM.

The compound `C[C@@H](Nc1nc(C(=O)O)nc2nc(-c3cc(OC4CCCCC4)ccn3)n(Cc3ccc(C(F)(F)F)cc3)c12)C1CCC1` [Example 1.58, 6-{[(1R)-1-cyclobutylethyl]amino}-8-[4-(cyclohexyloxy)pyridin-2-yl]-7-[4-(trifluoromethyl)benzyl]-7H-purine-2-carboxylic acid] yielded an IC50 of 16.9 nM.

Compound `C[C@@H](Nc1nc(C(=O)O)nc2nc(-c3cc(C(F)(F)F)ccn3)n(Cc3ccc(C(F)(F)F)cc3)c12)C1CCC1` [Example 1.60, 6-{[(1R)-1-cyclobutylethyl]amino}-7-[4-(trifluoromethyl)benzyl] - 8-[4-(trifluoromethyl)pyridin-2-yl]-7H-purine-2-carboxylic acid] came in with an IC50 of 15.2 nM.

The compound `C[C@@H](Nc1nc(C(=O)O)nc2nc(-c3cccc4c3CNC4)n(Cc3ccc(C(F)(F)F)cc3)c12)C1CCC1` [Example 1.61, 6-{[(1R)-1-cyclobutylethyl]amino}-8-(2,3-dihydro-1H-isoindol-4-yl)-7-[4-(trifluoromethyl)benzyl]-7H-purine-2-carboxylic acid] yielded an IC50 of 51.4 nM.

`C[C@@H](Nc1nc(C(=O)O)nc2nc(-c3cc4ccccc4cn3)n(Cc3ccc(C(F)(F)F)cc3)c12)C1CCC1` [Example 1.62, 6-{[(1R)-1-cyclobutylethyl]amino}-8-isoquinolin-3-yl-7-[4-(trifluoromethyl)benzyl] - 7H-purine-2-carboxylic acid]: the IC50 worked out at 45.8 nM. The IC50 values of the last two compounds are within 1.5-fold of each other.

As to `C[C@@H](Nc1nc(C(=O)O)nc2nc(-c3cccc(-c4ccccc4)n3)n(Cc3ccc(C(F)(F)F)cc3)c12)C1CCC1` [Example 1.63, 6-{[(1R)-1-cyclobutylethyl]amino}-8-(6-phenylpyridin-2-yl)-7-[4-(trifluoromethyl)benzyl] - 7H-purine-2-carboxylic acid], the IC50 came out at 324 nM. This IC50 lies about 7.1-fold higher than the previous one.

Take `C[C@@H](Nc1nc(C(=O)O)nc2nc(-c3cc(C(F)F)cc(C(F)F)n3)n(Cc3ccc(C(F)(F)F)cc3)c12)C1CCC1` [Example 1.64, 8-[4,6-bis(difluoromethyl)pyridin-2-yl]-6-{[(1R)-1-cyclobutylethyl]amino}-7-[4-(trifluoromethyl)benzyl] - 7H-purine-2-carboxylic acid]: the IC50 turned out to be 22.9 nM. Compared with the last compound, the IC50 is about 14-fold lower.

As for `C[C@@H](Nc1nc(C(=O)O)nc2nc(-c3ccc(C4OCCO4)cn3)n(Cc3ccc(C(F)(F)F)cc3)c12)C1CCC1` [Example 1.65, 6-{[(1R)-1-cyclobutylethyl]amino}-8-[5-(1,3-dioxolan-2-yl)pyridin-2-yl]-7-[4-(trifluoromethyl)benzyl]-7H-purine-2-carboxylic acid], the IC50 came out at 62.2 nM.

`C[C@@H](Nc1nc(C(=O)O)nc2nc(-c3ccc(OC(F)F)cn3)n(Cc3ccc(C(F)(F)F)cc3)c12)C1CCC1` [Example 1.66, 6-{[(1R)-1-cyclobutylethyl]amino}-8-[5-(difluoromethoxy)pyridin-2-yl]-7-[4-(trifluoromethyl)benzyl]-7H-purine-2-carboxylic acid]: inhibition was half-maximal at 58.4 nM (IC50).

On to `COc1ccnc(-c2nc3nc(C(=O)O)nc(N[C@H](C)C4CCC4)c3n2Cc2ccc(C(F)(F)F)cc2)c1` [Example 1.67, 6-{[(1R)-1-cyclobutylethyl]amino}-8-(4-methoxypyridin-2-yl)-7-[4-(trifluoromethyl)benzyl]-7H-purine-2-carboxylic acid], for which the IC50 was found to be 14.2 nM.

With `CCCc1ccnc(-c2nc3nc(C(=O)O)nc(N[C@H](C)C4CCC4)c3n2Cc2ccc(C(F)(F)F)cc2)c1` [Example 1.68, 6-{[(1R)-1-cyclobutylethyl]amino}-8-(4-propylpyridin-2-yl)-7-[4-(trifluoromethyl)benzyl]-7H-purine-2-carboxylic acid], the IC50 was found to be 5.62 nM.

Take `CCc1ccnc(-c2nc3nc(C(=O)O)nc(N[C@H](C)C4CCC4)c3n2Cc2ccc(C(F)(F)F)cc2)c1` [Example 1.69, 6-{[(1R)-1-cyclobutylethyl]amino}-8-(4-ethylpyridin-2-yl)-7-[4-(trifluoromethyl)benzyl]-7H-purine-2-carboxylic acid]: the IC50 is 42.7 nM. This IC50 lies about 7.6-fold higher than the previous one.

As for `CC(C)c1cccc(-c2nc3nc(C(=O)O)nc(N[C@H](C)C4CCC4)c3n2Cc2ccc(C(F)(F)F)cc2)n1` [Example 1.70, 6-{[(1R)-1-cyclobutylethyl]amino}-8-[6-(1-methylethyl)pyridin-2-yl]-7-[4-(trifluoromethyl)benzyl]-7H-purine-2-carboxylic acid], it took 46.9 nM to reach half-maximal inhibition (IC50). This IC50 and that of the compound before are within 1.5-fold of each other.

The compound `CC(C)c1ccnc(-c2nc3nc(C(=O)O)nc(N[C@H](C)C4CCC4)c3n2Cc2ccc(OC(F)(F)F)c(F)c2)c1` [Example 1.71, 6-{[(1R)-1-cyclobutylethyl]amino}-7-[3-fluoro-4-(trifluoromethoxy)benzyl]-8-[4-(1-methylethyl)pyridin-2-yl]-7H-purine-2-carboxylic acid] gave an IC50 of 9.51 nM. This IC50 is about 4.9-fold lower than that of the compound before.

Consider `CC(C)c1ccnc(-c2nc3nc(C(=O)O)nc(N[C@H](C)C4CCC4)c3n2Cc2ccc(OC(F)(F)F)cc2)c1` [Example 1.72, 6-{[(1R)-1-cyclobutylethyl]amino}-8-[4-(1-methylethyl)pyridin-2-yl]-7-[4-(trifluoromethoxy)benzyl]-7H-purine-2-carboxylic acid], for which half-maximal inhibition (IC50) was put at 12.3 nM.
